Data reported in US8765982B2, “Synergistic anticoagulant composition” (priority 2009, dated 2014).
“And” between values parts separate entries of the source, which are not always exact repeats. Equal values may be shown once.

Assays:
blood clotting [1] = assay: Rat feeding study: prothrombin time; assay type: in vivo, Sprague-Dawley rats; parameters: Pro Time: unit not given beside the values; conditions: rats; for Pro Time: in feed
Text: (§1) Male, albino, Sprague-Dawley rats (n=100) weighing 150-175 g were placed in quarantine for 1 week and then housed in individual cages. To determine food consumption, rat chow in containers was weighed at the beginning and end of the day to determine the weight of the food consumed by each animal. The containers were modified to prevent spillage. Rats were provided with water ad libitum. The chow was composed of rolled oats, sugar and peanut oil (92:4:4) (w:w:w) plus a standard vitamin/mineral mix.
(§2) Administration of anticoagulant was accomplished by uniformly dispersing the compound in the peanut oil used in the chow. […] […] Actual concentration of the drug to be applied will be based on the average food consumption determined for the rats.
(§3) Groups of rats were established as follows for each UWEC-K compound:
(§4) • A. Diet (Negative) controls: no anticoagulant additive to food • B. Positive controls: food treated with warfarin at LD50 concentration for a rat weighing 180 g • C. Control to evaluate potentiation or diminution of warfarin effect. […] The groups will be repeated for each of the two compounds. Four animals in each group were anaesthetized at 96 hours, and exsanguinated by cardiac puncture. Prior to exsanguination each animal was anesthetized by the intraperitoneal injection of 50 mg/kg of sodium pentothal. Blood was collected in 3.2% citrate in pediatric tubes and tested for prothrombin time and active coagulation factors VII and X. Factor V will also be tested as a marker of potential hepatic toxicity. […] Animals were monitored twice daily and any animals found in apparent distress with be immediately sacrificed as above.

clotting factor X = assay: Rat feeding study: level of active coagulation factor X; assay type: in vivo, Sprague-Dawley rats; conditions: rats; for X %: in feed
Text: as §1, §2, §3, §4

clotting factor VII = assay: Rat feeding study: level of active coagulation factor VII; assay type: in vivo, Sprague-Dawley rats; conditions: rats; for VII %: in feed
Text: as §1, §2, §3, §4

blood clotting [2] = assay: Rat feeding study: overall effect on blood clotting and on the anticoagulant activity of warfarin; assay type: in vivo, Sprague-Dawley rats; conditions: rats; for effect on blood clotting time and levels of clotting factors, compound alone (in words): without warfarin, all three doses; for effect on the activity of warfarin (in words): 10 days of co-administration with warfarin
Text: The containers were modified to prevent spillage. Rats were provided with water ad libitum.
Thus diets were constructed at 0.1 mpk/d. 1 mpk/d and 10 mpk/d.
Control to evaluate potentiation or diminution of warfarin effect.

[3] = Rat feeding study: toxicity control (LDH, AST, ALT, Alkaline Phosphatase, creatinine in plasma and serum); conditions: rats, in feed
Text: as §1, §2, §3, §4

blood clotting [4] = conditions: 0.25 mg/kg, rats of approximately 200 gm BW; cited from earlier work
rat = conditions: for 5 days; cited from earlier work
[5] = 10 days, co-administered with warfarin

With CC(=O)Oc1c2c(c(OC(C)=O)c3ccccc13)[C@H]1C=C[C@@H]2C1 [UWEC-K1] the “Pro Time” value (blood clotting [1]; 4 days, 0.025 mpk) was 11.18, the “Pro Time” value (blood clotting [1]; 4 days, 0.25 mpk) was 11.60 and the “Pro Time” value (blood clotting [1]; 4 days, 2.5 mpk) was 11.78. The “Pro Time” value (blood clotting [1]; 10 days, 0.025 mpk) was 11.37, the “Pro Time” value (blood clotting [1]; 10 days, 0.25 mpk) was 11.72 and the “Pro Time” value (blood clotting [1]; 10 days, 2.5 mpk) was 11.63. For the same compound, the X % (clotting factor X; 4 days, 0.025 mpk) was 74.50%, the X % (clotting factor X; 4 days, 0.25 mpk) was 65.33% and the X % (clotting factor X; 4 days, 2.5 mpk) was 64.25%. The X % (clotting factor X; 10 days, 0.025 mpk) was 68.00%, the X % (clotting factor X; 10 days, 0.25 mpk) was 61.17% and the X % (clotting factor X; 10 days, 2.5 mpk) was 61.00%. The VII % (clotting factor VII; 4 days, 0.025 mpk) was 346.75%, the VII % (clotting factor VII; 4 days, 0.25 mpk) was 351.33% and the VII % (clotting factor VII; 4 days, 2.5 mpk) was 370.75%. It also gave a VII % (clotting factor VII; 10 days, 0.025 mpk) of 364.00%, a VII % (clotting factor VII; 10 days, 0.25 mpk) of 304.67% and a VII % (clotting factor VII; 10 days, 2.5 mpk) of 286.83%. For the same compound, the “effect on blood clotting time and levels of clotting factors, compound alone (in words)” value (“effect on blood clotting time and levels” below) (blood clotting [2]; 4 days) was “do not differ significantly from control”, the “effect on the activity of warfarin (in words)” value (blood clotting [2]) was “significantly enhance the effect of warfarin” and the “effect on blood clotting time and levels” value (blood clotting [2]; 10 days) was “do not differ significantly from control”. For the same compound, the ALT ([3]; 4 days, 0.025 mpk) was 37.67, the AST ([3]; 4 days, 0.025 mpk) was 121.00 and the “Alk Phos” value ([3]; 4 days, 0.025 mpk) was 170.67. It also gave a Creat. ([3]; 4 days, 0.025 mpk) of 0.15, an LDH ([3]; 4 days, 0.025 mpk) of 1075.33 and an ALT ([3]; 4 days, 0.25 mpk) of 41.75. The AST ([3]; 4 days, 0.25 mpk) was 152.75, the “Alk Phos” value ([3]; 4 days, 0.25 mpk) was 245.75 and the Creat. ([3]; 4 days, 0.25 mpk) was 0.10. It also gave an LDH ([3]; 4 days, 0.25 mpk) of 1168.00, an ALT ([3]; 4 days, 2.5 mpk) of 39.00 and an AST ([3]; 4 days, 2.5 mpk) of 125.67. The “Alk Phos” value ([3]; 4 days, 2.5 mpk) was 230.67, the Creat. ([3]; 4 days, 2.5 mpk) was 0.10 and the LDH ([3]; 4 days, 2.5 mpk) was 1304.67. The ALT ([3]; 10 days, 0.025 mpk) was 49.33, the AST ([3]; 10 days, 0.025 mpk) was 134.67 and the “Alk Phos” value ([3]; 10 days, 0.025 mpk) was 252.17. For the same compound, the Creat. ([3]; 10 days, 0.025 mpk) was 0.13, the LDH ([3]; 10 days, 0.025 mpk) was 1697.17 and the ALT ([3]; 10 days, 0.25 mpk) was 48.33. The AST ([3]; 10 days, 0.25 mpk) was 121.33, the “Alk Phos” value ([3]; 10 days, 0.25 mpk) was 283.50 and the Creat. ([3]; 10 days, 0.25 mpk) was 0.15. For the same compound, the LDH ([3]; 10 days, 0.25 mpk) was 1330.33, the ALT ([3]; 10 days, 2.5 mpk) was 49.33 and the AST ([3]; 10 days, 2.5 mpk) was 124.67. For the same compound, the “Alk Phos” value ([3]; 10 days, 2.5 mpk) was 264.00, the Creat. ([3]; 10 days, 2.5 mpk) was 0.15 and the LDH ([3]; 10 days, 2.5 mpk) was 1663.83.

For CC(=O)Oc1c2c(c(OC(C)=O)c3ccccc13)[C@@H]1C[C@H]2C2OC21 (stereo partly drawn) [UWEC-K2], the “prothrombin clotting time increase compared to control” value (blood clotting [1]; [5]) was “almost an order of magnitude”, the “prothrombin clotting time increased by a factor relative to warfarin alone” value (blood clotting [1]; [5]) was “over 4” and the “Pro Time” value (blood clotting [1]; 4 days, 0.025 mpk) was 11.38. For the same compound, the “Pro Time” value (blood clotting [1]; 4 days, 0.25 mpk) was 11.63, the “Pro Time” value (blood clotting [1]; 4 days, 2.5 mpk) was 12.73 and the “Pro Time” value (blood clotting [1]; 10 days, 0.025 mpk) was 11.58. The “Pro Time” value (blood clotting [1]; 10 days, 0.25 mpk) was 11.55, the “Pro Time” value (blood clotting [1]; 10 days, 2.5 mpk, 2.5 mg/kg) was 11.57 and 11.63 and the “levels of Factor X reduced by a factor compared to control” value (clotting factor X; [5]) was roughly 20. The “levels of Factor X reduced by a factor relative to warfarin alone” value (clotting factor X; [5]) was 4, the X % (clotting factor X; 4 days, 0.025 mpk) was 73.25% and the X % (clotting factor X; 4 days, 0.25 mpk) was 61.00%. It also gave a X % (clotting factor X; 4 days, 2.5 mpk) of 61.00%, a X % (clotting factor X; 10 days, 0.025 mpk) of 64.17% and a X % (clotting factor X; 10 days, 0.25 mpk) of 59.83%. For the same compound, the X % (clotting factor X; 10 days, 2.5 mpk, 2.5 mg/kg) was 63.33% and 61.00%, the “levels of Factor VII reduced by a factor compared to control” value (clotting factor VII; [5]) was roughly 20 and the “levels of Factor VII reduced by a factor relative to warfarin alone” value (clotting factor VII; [5]) was 3. It also gave a VII % (clotting factor VII; 4 days, 0.025 mpk) of 366.25%, a VII % (clotting factor VII; 4 days, 0.25 mpk) of 334.33% and a VII % (clotting factor VII; 4 days, 2.5 mpk) of 395.50%. For the same compound, the VII % (clotting factor VII; 10 days, 0.025 mpk) was 350.17%, the VII % (clotting factor VII; 10 days, 0.25 mpk) was 295.17% and the VII % (clotting factor VII; 10 days, 2.5 mpk, 2.5 mg/kg) was 325.33% and 286.83%. The “effect on blood clotting time and levels” value (blood clotting [2]; 4 days) was “do not differ significantly from control”, the “effect on the activity of warfarin (in words)” value (blood clotting [2]) was “significantly enhance the effect of warfarin” and the “effect on blood clotting time and levels” value (blood clotting [2]; 10 days) was “do not differ significantly from control”. The ALT ([3]; 4 days, 0.025 mpk) was 40.25, the AST ([3]; 4 days, 0.025 mpk) was 104.75 and the “Alk Phos” value ([3]; 4 days, 0.025 mpk) was 213.50. For the same compound, the Creat. ([3]; 4 days, 0.025 mpk) was 0.10, the LDH ([3]; 4 days, 0.025 mpk) was 758.75 and the ALT ([3]; 4 days, 0.25 mpk) was 45.00. For the same compound, the AST ([3]; 4 days, 0.25 mpk) was 135.33, the “Alk Phos” value ([3]; 4 days, 0.25 mpk) was 240.33 and the Creat. ([3]; 4 days, 0.25 mpk) was 0.10. The LDH ([3]; 4 days, 0.25 mpk) was 1496.33, the ALT ([3]; 4 days, 2.5 mpk) was 35.50 and the AST ([3]; 4 days, 2.5 mpk) was 114.75. For the same compound, the “Alk Phos” value ([3]; 4 days, 2.5 mpk) was 217.25, the Creat. ([3]; 4 days, 2.5 mpk) was 0.10 and the LDH ([3]; 4 days, 2.5 mpk) was 1026.50. For the same compound, the ALT ([3]; 10 days, 0.025 mpk) was 48.17, the AST ([3]; 10 days, 0.025 mpk) was 132.33 and the “Alk Phos” value ([3]; 10 days, 0.025 mpk) was 241.67. The Creat. ([3]; 10 days, 0.025 mpk) was 0.10, the LDH ([3]; 10 days, 0.025 mpk) was 1552.33 and the ALT ([3]; 10 days, 0.25 mpk) was 47.50. The AST ([3]; 10 days, 0.25 mpk) was 118.67, the “Alk Phos” value ([3]; 10 days, 0.25 mpk) was 274.17 and the Creat. ([3]; 10 days, 0.25 mpk) was 0.12. The LDH ([3]; 10 days, 0.25 mpk) was 1445.50, the ALT ([3]; 10 days, 2.5 mpk) was 48.50 and the AST ([3]; 10 days, 2.5 mpk) was 110.67. For the same compound, the “Alk Phos” value ([3]; 10 days, 2.5 mpk) was 264.17, the Creat. ([3]; 10 days, 2.5 mpk) was 0.15 and the LDH ([3]; 10 days, 2.5 mpk) was 1234.50.

In the case of CC(=O)CC(c1ccccc1)c1c(O)c2ccccc2oc1=O (stereo not drawn) [Warfarin, warfarin, reference compound], the “Pro Time” value (blood clotting [1]; 4 days, 0.25 mpk) is listed as 36.98, the “Pro Time” value (blood clotting [1]; 10 days, 0.25 mpk) is listed as 24.38 and the INR maintained (blood clotting [4]) is listed as 2.6. The X % (clotting factor X; 4 days, 0.25 mpk) was 10.00%, the X % (clotting factor X; 10 days, 0.25 mpk) was 14.85% and the VII % (clotting factor VII; 4 days, 0.25 mpk) was 29.54%. The VII % (clotting factor VII; 10 days, 0.25 mpk) was 56.18%, the LD50 (rat) was 1 mg/kg/day and the ALT ([3]; 4 days, 0.25 mpk) was 46.00. For the same compound, the AST ([3]; 4 days, 0.25 mpk) was 123.25, the “Alk Phos” value ([3]; 4 days, 0.25 mpk) was 242.30 and the Creat. ([3]; 4 days, 0.25 mpk) was 0.11. For the same compound, the LDH ([3]; 4 days, 0.25 mpk) was 1168.88, the ALT ([3]; 10 days, 0.25 mpk) was 48.09 and the AST ([3]; 10 days, 0.25 mpk) was 91.82. The “Alk Phos” value ([3]; 10 days, 0.25 mpk) was 249.73, the Creat. ([3]; 10 days, 0.25 mpk) was 0.15 and the LDH ([3]; 10 days, 0.25 mpk) was 626.18.
